From patent US20230174649A1, “PHARMACEUTICAL COMPOSITIONS CONTAINING ANTI-CD47 ANTIBODIES” (I-MAB BIOPHARMA US LIMITED, priority 2020, published 2023)
Several values for one entry are separate records, joined by “and”; a condition that tells them apart may be missing. Equal entries are not always repeated.

Key:
Assay type in all cases: cell-based, Human
Toledo Cells = experiment: FACS-based phagocytosis assay, macrophages cocultured with Toledo cells
Protocol: FACS-based phagocytosis assays were performed to evaluate the phagocytic abilities of macrophages.
Toledo Cells (a tumor cell line, as a target) were labelled with CellTrace™ Far Red and plated into 96-well plate at a density of 0.15×10^6 cells/well for 12 hours. The Macrophages were prepared as discussed above and then labelled with CellTrace Violet. Next, the macrophages were added into the plate as an effector at an effector:target (Toledo) ratio of 1:3, giving a final density of macrophages at 0.05×10^6 cells/well. Macrophages and tumor cells were cocultured for 2-6 h at 37° C. in the presence of the indicated treatments (small molecule therapeutic agents, CD47 antibody, CD20 antibody or combinations). The incubation time depending on the phagocytosis rate, expecting phagocytosis of 5-20% cells.
Then, cells were acquired and data were analyzed.

CD47 = experiment: FACS analysis of expression level of CD47 on tumor cell surface; conditions: Toledo cells, 12 hours
Protocol: (§1) For FACS analysis, on the day of analysis (day 1), Toledo cells were seeded into 96 well plate and cultured at a density of 0.2×10^6 cells/well. Then the cells were treated with the selected small molecule therapeutic agents for 12 hours.
(§2) On day 2, cells were harvested, washed twice and then re-suspended in 100 uL FACS buffer subject to FACS analysis. For detection of the expression of calreticulin and CD47, cells were incubated with anti-calreticulin antibody and commercially available anti-CD47 antibody (BD Biosciences, Catalog number: 561249) in dark at 4° C. for 30 mins.
(§3) Then, the cells were subject to FACS analysis. Data was acquired and analyzed.

macrophages = experiment: Macrophage Viability Assay (CellTiter-Glo); conditions: for Macrophage viability (CellTiter-Glo Luminescent Cell Viability Assay): 16 hours, three replicate lines
Protocol: Then, the monocytes isolated by MACS were subsequently cultured in fresh complete medium supplemented with recombinant human granulocyte-macrophage colony-stimulating factor GM-CSF (50 ng/ml) and human recombinant IL-4 (35 ng/ml) to activate differentiated macrophages. After 6 days of culture (on day 7), cells were harvested, pooled together and counted for next use.
The cells from Example 2 were plated into a 96-well flat bottom plate at a density of 0.05×10^6 cells/well. After 2 hours of incubation, the macrophages were well attached to the plate. Then selected small molecule therapeutic agents were added to the well and cocultured for 16 hours. On day 8, macrophage viability was assessed by CellTiter-Glo® Luminescent Cell Viability Assay, according to the manufacture's instruction.

Calreticulin = experiment: FACS analysis of expression level of calreticulin on tumor cell surface; conditions: Toledo cells, 12 hours
Protocol: as §1, §2, §3

## Nc1cccc2c1CN(C1CCC(=O)NC1=O)C2=O (stereo not shown) [Lenalidomide]
Toledo Cells; Cpd 0.0016 uM, T4J = 0, R = 0
  macrophage phagocytosis (untreated = 1.00): 1.02
Toledo Cells; Cpd 0.0016 uM, T4J = 0, R = 0.01 ug/ml
  macrophage phagocytosis (untreated = 1.00): 1.46
Toledo Cells; Cpd 0.0016 uM, T4J = 0.1 ug/ml, R = 0
  macrophage phagocytosis (untreated = 1.00): 2.48
Toledo Cells; Cpd 0.0016 uM, T4J = 0.1 ug/ml, R = 0.01 ug/ml
  macrophage phagocytosis (untreated = 1.00): 3.10
Toledo Cells; Cpd 0.008 uM, T4J = 0, R = 0
  macrophage phagocytosis (untreated = 1.00): 1.03
Toledo Cells; Cpd 0.008 uM, T4J = 0, R = 0.01 ug/ml
  macrophage phagocytosis (untreated = 1.00): 1.47
Toledo Cells; Cpd 0.008 uM, T4J = 0.1 ug/ml, R = 0
  macrophage phagocytosis (untreated = 1.00): 2.57
Toledo Cells; Cpd 0.008 uM, T4J = 0.1 ug/ml, R = 0.01 ug/ml
  macrophage phagocytosis (untreated = 1.00): 3.04
Toledo Cells; Cpd 0.04 uM, T4J = 0, R = 0
  macrophage phagocytosis (untreated = 1.00): 1.08
Toledo Cells; Cpd 0.04 uM, T4J = 0, R = 0.01 ug/ml
  macrophage phagocytosis (untreated = 1.00): 1.46
Toledo Cells; Cpd 0.04 uM, T4J = 0.1 ug/ml, R = 0
  macrophage phagocytosis (untreated = 1.00): 2.56
Toledo Cells; Cpd 0.04 uM, T4J = 0.1 ug/ml, R = 0.01 ug/ml
  macrophage phagocytosis (untreated = 1.00): 3.06
Toledo Cells; Cpd 0.2 uM, T4J = 0, R = 0
  macrophage phagocytosis (untreated = 1.00): 0.96
Toledo Cells; Cpd 0.2 uM, T4J = 0, R = 0.01 ug/ml
  macrophage phagocytosis (untreated = 1.00): 1.51
Toledo Cells; Cpd 0.2 uM, T4J = 0.1 ug/ml, R = 0
  macrophage phagocytosis (untreated = 1.00): 2.61
Toledo Cells; Cpd 0.2 uM, T4J = 0.1 ug/ml, R = 0.01 ug/ml
  macrophage phagocytosis (untreated = 1.00): 3.04
Toledo Cells; Cpd 1 uM, T4J = 0, R = 0
  macrophage phagocytosis (untreated = 1.00): 1.01
Toledo Cells; Cpd 1 uM, T4J = 0, R = 0.01 ug/ml
  macrophage phagocytosis (untreated = 1.00): 1.47
Toledo Cells; Cpd 1 uM, T4J = 0.1 ug/ml, R = 0
  macrophage phagocytosis (untreated = 1.00): 2.62
Toledo Cells; Cpd 1 uM, T4J = 0.1 ug/ml, R = 0.01 ug/ml
  macrophage phagocytosis (untreated = 1.00): 3.07
Toledo Cells; triple combination: T4J, Rituximab and the small molecule
  phagocytic ability of macrophages: does not show the synergistic effects
CD47; 0.008 uM
  Mean Fluorescence Intensity (MFI) CD47: 8706
CD47; 0.04 uM
  Mean Fluorescence Intensity (MFI) CD47: 8881
CD47; 0.2 uM
  Mean Fluorescence Intensity (MFI) CD47: 8730
CD47; 1 uM
  Mean Fluorescence Intensity (MFI) CD47: 8985
CD47; 5 uM
  Mean Fluorescence Intensity (MFI) CD47: 8443
macrophages; Cpd 0.002 uM
  Macrophage viability (CellTiter-Glo Luminescent Cell Viability Assay): 5972 and 5872 and 5776
macrophages; Cpd 0.008 uM
  Macrophage viability (CellTiter-Glo Luminescent Cell Viability Assay): 5992 and 5996 and 6180
macrophages; Cpd 0.04 uM
  Macrophage viability (CellTiter-Glo Luminescent Cell Viability Assay): 6152 and 6132 and 5892
macrophages; Cpd 0.2 uM
  Macrophage viability (CellTiter-Glo Luminescent Cell Viability Assay): 6216 and 6088 and 6456
macrophages; Cpd 1 uM
  Macrophage viability (CellTiter-Glo Luminescent Cell Viability Assay): 6016 and 6108 and 6088
macrophages; Cpd 5 uM
  Macrophage viability (CellTiter-Glo Luminescent Cell Viability Assay): 5840 and 6236 and 6108
macrophages; Cpd 25 uM
  Macrophage viability (CellTiter-Glo Luminescent Cell Viability Assay): 5432 and 5752 and 5744
macrophages; Cpd 50 uM
  Macrophage viability (CellTiter-Glo Luminescent Cell Viability Assay): 5208 and 5124 and 5644
macrophages; dose as high as 50 μM
  toxicity to macrophages: showed toxicity
macrophages; dose lower than 10 μM
  toxicity to macrophages: little toxic
Calreticulin; 0.008 uM
  Mean Fluorescence Intensity (MFI) Calreticulin: 69.3
Calreticulin; 0.04 uM
  Mean Fluorescence Intensity (MFI) Calreticulin: 70.1
Calreticulin; 0.2 uM
  Mean Fluorescence Intensity (MFI) Calreticulin: 73.4
Calreticulin; 1 uM
  Mean Fluorescence Intensity (MFI) Calreticulin: 75.6
Calreticulin; 5 uM
  Mean Fluorescence Intensity (MFI) Calreticulin: 75.2

## C=CC(=O)N1CCC[C@@H](n2nc(-c3ccc(Oc4ccccc4)cc3)c3c(N)ncnc32)C1 [Ibrutinib]
CD47; 0.008 uM
  Mean Fluorescence Intensity (MFI) CD47: 8453
CD47; 0.04 uM
  Mean Fluorescence Intensity (MFI) CD47: 8490
CD47; 0.2 uM
  Mean Fluorescence Intensity (MFI) CD47: 8415
CD47; 1 uM
  Mean Fluorescence Intensity (MFI) CD47: 8345
CD47; 5 uM
  Mean Fluorescence Intensity (MFI) CD47: 8345
macrophages; Cpd 0.002 uM
  Macrophage viability (CellTiter-Glo Luminescent Cell Viability Assay): 4948 and 4988 and 5520
macrophages; Cpd 0.008 uM
  Macrophage viability (CellTiter-Glo Luminescent Cell Viability Assay): 4880 and 5316 and 5780
macrophages; Cpd 0.04 uM
  Macrophage viability (CellTiter-Glo Luminescent Cell Viability Assay): 4688 and 5488 and 5780
macrophages; Cpd 0.2 uM
  Macrophage viability (CellTiter-Glo Luminescent Cell Viability Assay): 4932 and 5736 and 6152
macrophages; Cpd 1 uM
  Macrophage viability (CellTiter-Glo Luminescent Cell Viability Assay): 5056 and 5624 and 6224
macrophages; Cpd 5 uM
  Macrophage viability (CellTiter-Glo Luminescent Cell Viability Assay): 4864 and 5828 and 6004
macrophages; Cpd 25 uM
  Macrophage viability (CellTiter-Glo Luminescent Cell Viability Assay): 4680 and 5100 and 5572
macrophages; Cpd 50 uM
  Macrophage viability (CellTiter-Glo Luminescent Cell Viability Assay): 3732 and 4296 and 4508
macrophages; dose as high as 50 μM
  toxicity to macrophages: showed toxicity
macrophages; dose lower than 10 μM
  toxicity to macrophages: little toxic
Calreticulin; 0.008 uM
  Mean Fluorescence Intensity (MFI) Calreticulin: 70.6
Calreticulin; 0.04 uM
  Mean Fluorescence Intensity (MFI) Calreticulin: 73.1
Calreticulin; 0.2 uM
  Mean Fluorescence Intensity (MFI) Calreticulin: 74.5
Calreticulin; 1 uM
  Mean Fluorescence Intensity (MFI) Calreticulin: 69.9
Calreticulin; 5 uM
  Mean Fluorescence Intensity (MFI) Calreticulin: 79
